Measurements from PubChem BioAssay AID248 (DTP/NCI, 2004).
Values joined by “and” are separate entries in the source; they are usually repeats but may differ in a detail not shown here. Equal values may be shown once. Toxic doses and inconclusive results are not listed.

System: L1210 leukemia ip in BDF1 mice, survival T/C
Assay: NCI In Vivo Anticancer Drug Screen. Data for tumor model L1210 Leukemia (intraperitoneal) in B6D2F1 (BDF1) mice
Settings: endpoint: mean survival time, higher = longer survival
Method in brief: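 Read-out is survival time, reported as the treated-group measurement over the vehicle-control measurement.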

[1] = dose: 50.0 mg/kg/injection, schedule: Q01DX009 (ip), vehicle: saline with Tween-80
[2] = dose: 100.0 mg/kg/injection, schedule: Q01DX009 (ip), vehicle: saline with Tween-80
[3] = dose: 100.0 mg/kg/injection, schedule: Q04DX002 (ip), vehicle: Klucel (hydroxypropylcellulose) (HPC)
[4] = dose: 200.0 mg/kg/injection, schedule: Q04DX002 (ip), vehicle: Klucel (hydroxypropylcellulose) (HPC)
[5] = dose: 400.0 mg/kg/injection, schedule: Q04DX002 (ip), vehicle: Klucel (hydroxypropylcellulose) (HPC)
[6] = dose: 100.0 mg/kg/injection, schedule: Q04DX003 (ip), vehicle: saline
[7] = dose: 100.0 mg/kg/injection, schedule: Q04DX003 (ip), vehicle: saline with Tween-80
[8] = dose: 200.0 mg/kg/injection, schedule: Q01DX009 (ip), vehicle: saline with Tween-80
[9] = dose: 200.0 mg/kg/injection, schedule: Q04DX003 (ip), vehicle: saline with Tween-80
[10] = dose: 100.0 mg/kg/injection, schedule: Q01DX009 (ip), vehicle: Klucel (hydroxypropylcellulose) (HPC)
[11] = dose: 200.0 mg/kg/injection, schedule: Q01DX009 (ip), vehicle: Klucel (hydroxypropylcellulose) (HPC)
[12] = dose: 400.0 mg/kg/injection, schedule: Q01DX009 (ip), vehicle: Klucel (hydroxypropylcellulose) (HPC)
[13] = dose: 100.0 mg/kg/injection, schedule: Q01DX001 (ip), vehicle: saline
[14] = dose: 200.0 mg/kg/injection, schedule: Q01DX001 (ip), vehicle: saline
[15] = dose: 400.0 mg/kg/injection, schedule: Q01DX001 (ip), vehicle: saline
[16] = dose: 400.0 mg/kg/injection, schedule: Q04DX003 (ip), vehicle: saline with Tween-80

CC1(CBr)OCCCO1
T/C (dose: 25.0 mg/kg/injection, schedule: Q01DX009 (ip), vehicle: saline with Tween-80): 96 % of control
T/C (dose: 25.0 mg/kg/injection, schedule: Q04DX002 (ip), vehicle: saline): 93 % of control
T/C [1]: 103 % of control
T/C (dose: 50.0 mg/kg/injection, schedule: Q04DX002 (ip), vehicle: saline): 93 % of control
T/C [2]: 103 % of control
T/C (dose: 100.0 mg/kg/injection, schedule: Q04DX002 (ip), vehicle: saline with Tween-80): 95 % of control
T/C (dose: 100.0 mg/kg/injection, schedule: Q04DX002 (ip), vehicle: saline): 93 % of control

CCCC/C(COC)=N\N=C(\CCOC)COC
T/C (dose: 200.0 mg/kg/injection, schedule: Q01DX001 (ip), vehicle: carboxymethylcellulose (CMC)): 94 % of control
T/C (dose: 400.0 mg/kg/injection, schedule: Q01DX001 (ip), vehicle: carboxymethylcellulose (CMC)): 94 % of control

O=C(Nc1ccc(S(=O)(=O)F)cc1)/C(=C\c1ccc([N+](=O)[O-])cc1)c1cccc(Cl)c1
T/C [3]: 94 % of control
T/C [4]: 105 % of control
T/C [5]: 105 % of control

CNCCCN(C)CCCNC
T/C (dose: 25.0 mg/kg/injection, schedule: Q01DX009 (ip), vehicle: saline): 100 % of control
T/C (dose: 25.0 mg/kg/injection, schedule: Q04DX003 (ip), vehicle: saline): 96 % of control
T/C (dose: 50.0 mg/kg/injection, schedule: Q01DX009 (ip), vehicle: saline): 101 % of control
T/C (dose: 50.0 mg/kg/injection, schedule: Q04DX003 (ip), vehicle: saline): 104 % of control
T/C (dose: 100.0 mg/kg/injection, schedule: Q01DX009 (ip), vehicle: saline): 94 % of control
T/C [6]: 99 % of control and 102 % of control

CNC(=N)c1ccc(NC(=N)c2ccc(NC(=O)Nc3ccc(C(=N)Nc4ccc(C(=N)NC)cc4)cc3)cc2)cc1
T/C (dose: 0.25 mg/kg/injection, schedule: Q01DX Z (ip), vehicle: water): 98 % of control
T/C (dose: 0.5 mg/kg/injection, schedule: Q01DX Z (ip), vehicle: water): 96 % of control
T/C (dose: 1.0 mg/kg/injection, schedule: Q01DX Z (ip), vehicle: water): 96 % of control
T/C (dose: 1.87 mg/kg/injection, schedule: Q01DX Z (ip), vehicle: water): 92 % of control
T/C (dose: 2.0 mg/kg/injection, schedule: Q01DX Z (ip), vehicle: water): 104 % of control
T/C (dose: 3.75 mg/kg/injection, schedule: Q01DX Z (ip), vehicle: water): 156 % of control
T/C (dose: 7.0 mg/kg/injection, schedule: Q01DX Z (ip), vehicle: carboxymethylcellulose (CMC)): 165 % of control
T/C (dose: 7.5 mg/kg/injection, schedule: Q01DX Z (ip), vehicle: water): 246 % of control
T/C (dose: 10.0 mg/kg/injection, schedule: Q01DX Z (ip), vehicle: water): 209 % of control
T/C (dose: 14.0 mg/kg/injection, schedule: Q01DX Z (ip), vehicle: carboxymethylcellulose (CMC)): 160 % of control
T/C (dose: 25.0 mg/kg/injection, schedule: Q01DX Z (oral), vehicle: water): 100 % of control
T/C (dose: 50.0 mg/kg/injection, schedule: Q01DX Z (oral), vehicle: water): 98 % of control
T/C (dose: 100.0 mg/kg/injection, schedule: Q01DX Z (oral), vehicle: water): 104 % of control
T/C (dose: 200.0 mg/kg/injection, schedule: Q01DX Z (oral), vehicle: water): 100 % of control

OC1(c2cccc3ccccc23)CCCCC1
T/C [1]: 100 % of control
T/C [2]: 94 % of control
T/C [7]: 94 % of control
T/C [8]: 103 % of control
T/C [9]: 91 % of control

Clc1ccc(C2(CBr)OCCO2)cc1
T/C [10]: 98 % of control and 105 % of control
T/C [3]: 95 % of control and 100 % of control
T/C [11]: 101 % of control and 91 % of control
T/C [4]: 97 % of control and 98 % of control
T/C [12]: 97 % of control and 98 % of control
T/C [5]: 98 % of control and 108 % of control

CSc1ncc2c(=O)n(C)[nH]c2n1
T/C (dose: 100.0 mg/kg/injection, schedule: Q01DX001 (ip), vehicle: Klucel (hydroxypropylcellulose) (HPC)): 93 % of control
T/C (dose: 200.0 mg/kg/injection, schedule: Q01DX001 (ip), vehicle: Klucel (hydroxypropylcellulose) (HPC)): 92 % of control
T/C (dose: 400.0 mg/kg/injection, schedule: Q01DX001 (ip), vehicle: Klucel (hydroxypropylcellulose) (HPC)): 90 % of control

COc1ccc(CCN(CCO)CCNS(=O)(=O)c2ccc(C)cc2)cc1
T/C (dose: 100.0 mg/kg/injection, schedule: Q01DX001 (ip), vehicle: water): 98 % of control
T/C (dose: 200.0 mg/kg/injection, schedule: Q01DX001 (ip), vehicle: water): 107 % of control
T/C (dose: 400.0 mg/kg/injection, schedule: Q01DX001 (ip), vehicle: water): 107 % of control

Cc1ccccc1Nc1nc(N)nc2nc(N)c(C(N)=O)nc12
T/C [3]: 97 % of control
T/C [4]: 92 % of control
T/C [5]: 92 % of control

Cc1cc(=O)c2cc(C(=O)c3ccccc3)ccc2[nH]1
T/C [13]: 101 % of control
T/C [14]: 98 % of control
T/C [15]: 107 % of control

COC(=O)c1ccc(Cn2ccc(=O)n(Cc3ccc(C(=O)OC)cc3)c2=O)cc1
T/C [7]: 91 % of control
T/C [9]: 88 % of control
T/C [16]: 90 % of control

CCOC(=O)C1CCC(C(=O)OCC)N1c1ccc(C=O)cc1 (stereo not given)
T/C (dose: 100.0 mg/kg/injection, schedule: Q01DX009 (sc), vehicle: olive oil, sesame oil, peanut oil): 104 % of control
T/C (dose: 100.0 mg/kg/injection, schedule: Q04DX003 (sc), vehicle: olive oil, sesame oil, peanut oil): 112 % of control
T/C (dose: 200.0 mg/kg/injection, schedule: Q01DX009 (sc), vehicle: olive oil, sesame oil, peanut oil): 96 % of control
T/C (dose: 200.0 mg/kg/injection, schedule: Q04DX003 (sc), vehicle: olive oil, sesame oil, peanut oil): 112 % of control
T/C (dose: 400.0 mg/kg/injection, schedule: Q01DX009 (sc), vehicle: olive oil, sesame oil, peanut oil): 110 % of control
T/C (dose: 400.0 mg/kg/injection, schedule: Q04DX003 (sc), vehicle: olive oil, sesame oil, peanut oil): 102 % of control

O=CN(c1ccccc1)c1ccccc1
T/C (dose: 100.0 mg/kg/injection, schedule: Q01DX009 (ip), vehicle: other): 109 % of control
T/C [6]: 100 % of control
T/C (dose: 200.0 mg/kg/injection, schedule: Q01DX009 (ip), vehicle: other): 106 % of control
T/C (dose: 200.0 mg/kg/injection, schedule: Q04DX003 (ip), vehicle: saline): 102 % of control
T/C (dose: 400.0 mg/kg/injection, schedule: Q01DX009 (ip), vehicle: other): 106 % of control
T/C (dose: 400.0 mg/kg/injection, schedule: Q04DX003 (ip), vehicle: saline): 109 % of control

O=c1nc(SCc2ccccc2)c(SCc2ccccc2)n[nH]1
T/C [13]: 95 % of control
T/C [14]: 98 % of control
T/C [15]: 91 % of control

CCCCNC(=O)Nc1ccc(Nc2ccccc2)cc1
T/C (dose: 100.0 mg/kg/injection, schedule: Q01DX009 (ip), vehicle: gum acacia): 88 % of control
T/C (dose: 100.0 mg/kg/injection, schedule: Q04DX003 (ip), vehicle: gum acacia): 88 % of control
T/C (dose: 200.0 mg/kg/injection, schedule: Q01DX009 (ip), vehicle: gum acacia): 108 % of control
T/C (dose: 200.0 mg/kg/injection, schedule: Q04DX003 (ip), vehicle: gum acacia): 96 % of control
T/C (dose: 400.0 mg/kg/injection, schedule: Q04DX003 (ip), vehicle: gum acacia): 96 % of control

CCC(O)CC(=O)O (stereo not given) (tested in a mixture with another compound)
T/C (dose: 25.0 mg/kg/injection, schedule: Q04DX002 (ip), vehicle: Klucel (hydroxypropylcellulose) (HPC)): 104 % of control
T/C (dose: 50.0 mg/kg/injection, schedule: Q04DX002 (ip), vehicle: Klucel (hydroxypropylcellulose) (HPC)): 101 % of control
T/C [3]: 101 % of control

CCN(CC)c1ccc(NC(=O)Nc2ccccc2C)cc1
T/C [2]: 93 % of control
T/C [7]: 100 % of control
T/C [8]: 90 % of control
T/C [9]: 94 % of control
T/C (dose: 400.0 mg/kg/injection, schedule: Q01DX009 (ip), vehicle: saline with Tween-80): 94 % of control
T/C [16]: 94 % of control

COc1cccc(NC(=S)NNC(=S)NNc2ccccc2)c1
T/C [10]: 108 % of control
T/C [11]: 100 % of control
T/C [12]: 100 % of control
